Here are results for one substance from US12583911B2, “Human immunodeficiency virus GP120 binding proteins” (ViiV Healthcare UK (No.5) Limited, priority 2022, dated 2026).

pEC50, pIC50: −log10 of the molar value.

As usually defined, the pIC50 is −log10 of the IC50, conventionally taken in molar units. A low value points to a high IC50. Broadly, the pEC50 is the EC50 on a negative log10 scale, so that one unit is a factor of ten.

Series [1] concerns panel of HIV-1 envelopes (pseudotyped HIV-1 virus). The series can be described thus: PSV assay (ACTOne cells), HIV-1 envelopes. It counts as cell-based. On the procedure:
(§1) The anti-viral activity of the antigen binding proteins was measured in a pseudotyped virus (PSV) assay.
(§2) PSV was produced in HEK-293T cells (ATCC, Manassas VA) by co-transfecting expression plasmids encoding the HIV-1 gp160 envelope gene and an HIV-1 backbone plasmid using TRANSIT-2020 transfection reagent (Mirus Bio, Madison WI). A panel of HIV-1 PSVs expressing different gp160 envelope trimers was generated to evaluate the effectiveness of the antigen binding proteins of the invention against a wide spectrum of HIV-1 strains.
(§3) The genome of PSV used in this assay contains a luciferase gene that is expressed once the virus enters cells. Accordingly, the luminescence signal (after adding a substrate of luciferase) can be used to determine the level of viral infection.
(§4) The 50% tissue culture infectious dose (TCID) of a single thawed aliquot of each batch of PSV was determined in ACTOne cells. The ACTOne cell-line used in this assay was derived in-house from a genetically engineered 293T cell clone that expresses CD4, CXCR4, and CCR5. Cells were maintained in growth medium composed of Dulbecco's modified Eagle's medium (DMEM, Life Technologies) at 37° C. in a humidified 5% CO2-95% air environment. Cell monolayers were split by treatment with Trypsin-EDTA (0.05%).
(§5) To run the anti-viral assay, ACTOne cells were detached by treating the cell culture flask with trypsin (trypsinization) and resuspended in growth medium containing 2% of DMSO to a density of 2.5×10^5 cells/ml. One hundred μl of such cells was added to 10 μl of antigen binding protein pre-loaded in a 96-well plate. Ninety μl of PSV was then added to each well. The assay plates were incubated at 37° C. in a humidified incubator at 5% CO2 level. Plates were developed after 72 hours of incubation by adding 50 μl of BRIGHTGLO luciferase reagent (Promega, Madison WI) to each well, and transferring the plates to an ENVISION multilabel plate reader (PerkinElmer, Waltham MA) to measure the luminescence and determine the level of virus that had infected the cells. The higher the luminescence signal, the higher the level of infection.

In series [2] the test system is HIV-2 Env-pseudotypes (HIV-2-AID, HIV-2-ATM88, HIV-2-HCC-01). The series can be described thus: PSV assay (ACTOne cells), HIV-2 envelopes. It is filed as cell-based. Conditions: PSV assay. On the procedure:
as §1, §2, §3, §4, §5
HIV-2 differs from HIV-1 in that it originates from the transmission of simian immunodeficiency virus (SIV) from sooty mangabeys (SIVsmm) to human (Gao et al, J Virol. 1994; 68 (11): 7433-7447) whilst HIV-1 stems from the transmission from chimpanzees and western gorillas (HIV-1 group M and O, respectively). HIV-2 can also cause AIDS but is far less pathogenic and wide-spread than HIV-1 (de Silva et al, Trends Microbiol. 2008; 16 (12): 588-595; Da Silva et al, AIDS. 2008; 22 (10): 1195-1202). Though also using CD4 for infection (Sattentau et al, AIDS. 1988; 2 (2): 101-105), HIV-2 shares only 40% identity in the gp160 amino acid sequence with HIV-1, and is therefore less sensitive or insensitive to HIV-1 envelope-directed bnAbs (Kong et al, JVI 2012; 86 (2): 947-960).

Series [3] can be described thus: Melting temperature (Tm) of soluble CD4 domains, Prometheus System. It is filed as physicochemical. The note with it: soluble CD4 domain with C-terminal 6xHis tag. On the procedure:
The best performing variants (SEQ ID NOs: 5-21) were fused with 6×His tag at their C-termini, expressed and purified from mammalian cells using methods as described in Example 1, except that purification was via a Ni-NTA resin (Cytiva, Marlborough MA) instead of Mabselect SuRe column, with standard protocol from the vendor.
These purified CD4 D1 variants (with C-terminal 6xHis tag) were then evaluated to determine their melting temperature (Tm, using Prometheus System, NanoTemper, München Germany), which indicates thermal stability, as well as their anti-viral activity against HIV-1 pseudotyped virus (see Example 2 above for methods using ACTOne cells).

The subject of series [4] is NL4-3 (NLRepRluc replicating reporter virus). Kind of series: Replicating virus assay using NLRepRluc virus (NL4-3) in MT-2 cells. It is filed as cell-based, HIV-1. The note with it: NL4-3, replicating virus assay. The text has this: All clinical and laboratory isolates were originally obtained from the NIH AIDS Reagent Program (currently NIH HIV Reagent Program, https:hivreagentprogram.org/). The proviral clone of NL4-3 (obtained from NIH) was used to make the replicating reporter virus NLRepRluc, in which a section of the nef gene from the proviral clone of NL4-3 was replaced with the Renilla luciferase gene. Virus was produced through transfection of HEK293T cells using Lipofectamine Plus (Invitrogen, Carlsbad, CA), according to the manufacturer's instructions. […]
The NLRepRluc was used to infect MT-2 cells at a multiplicity of 0.01 for 1 hour before adding the proteins to the 96-well plates. […] After 4 days of incubation, cells were processed and quantitated for virus growth by the amount of expressed luciferase. Luciferase was quantitated using the ENDUREN substrate from Promega (Madison, WI) according to the manufacturer's instructions. Luciferase activity was measured immediately on an ENVISION multilabel plate reader (PerkinElmer, Waltham MA). EC50 values were calculated by comparing the amount of luciferase produced in the presence of antigen binding protein compared to wells where no antigen binding protein (DMSO control) was added. […]

The test system of the next series is HIV NL4-3 virus. The series can be described thus: In vitro resistance barrier (viral breakthrough in MT2 cells). It counts as cell-based, HIV-1. The note with it: HIV NL4-3 in MT2 cells. On the procedure: To assess the resistance barrier of the bispecific molecules, we examined the relative rates at which HIV NL4-3 virus can escape inhibition by a panel of antibodies versus a DMSO control.
MT2 cells (2.0×10^5/well in RPMI 1640+[…] penicillin and streptomycin+10 mM HEPES buffer pH 7.55+2 mM L-glutamine. +0.2% DMSO) were pre-infected at an MOI (multiplicity of infection) of 0.005 for 2.5 hours and then pelleted to remove unbound virus particles. One mL of infected cells was added to each well of a 24 well plate.
Every 3-4 days images of the wells were captured and 1 ml of each well is removed and replaced by fresh preparations of each condition. This process was continued until there was viral breakthrough (observed cytopathic effect (CPE)>80%) or until there was a confirmed elimination of infected cells (via challenged elimination). When either condition was achieved, the sample was collected as pellet and supernatant (via centrifugation) and stored at −80° C. until genotypic analysis was performed to confirm the presence of resistance mutations. The days from infection to breakthrough were used to estimate the resistance barrier of a certain molecule. The longer it takes the virus to develop CPE, which indicates resistance, the higher the resistance barrier is.

“D1m_His: soluble human CD4 D1 variant mD1.22 (SEQ ID NO:4) plus C-terminal 6xHis tag [Molecule D1m_His, reference compound]”: the negative-log IC50 (pIC50) in series [1] (envelope 42368, PSV assay) is 8.36; in series [1] (envelope BJOX2000, PSV assay), 7.15; in series [1] (envelope CAP45.2.00.G3, PSV assay), 6.88; in series [1] (envelope CC1/85, PSV assay), 8.15; in series [1] (envelope CH119, PSV assay), 7.04; in series [1] (envelope LAI, PSV assay), 8.06. The pIC50 was 8.40 in series [1] (envelope T278.50, PSV assay); 7.16 in series [1] (envelope TRO11, PSV assay); 7.79 in series [1] (envelope X1632_S2_B10, PSV assay); 7.58 in series [1] (envelope ZM106.9, PSV assay); 6.98 in series [2] (envelope HIV-2-AID, ACTOne cells); 8.41 in series [2] (envelope HIV-2-ATM88). In series [2] (envelope HIV-2-HCC-01), this substance had a negative-log IC50 (pIC50) below 6.30. In addition, the “Tm (° C.)” value in series [3] was 68.2 °C. This substance had a negative logarithm of the EC50 (pEC50) in series [4] of 9.64. The “Average days before CPE” value with HIV NL4-3 virus (group 20x EC50) worked out at 4 days; in the series with HIV NL4-3 virus (group 30x EC50), 5 days; in the series with HIV NL4-3 virus (group 40x EC50), 7 days.
